From patent US6156790A, “C-10 carbon-substituted artemisinin-like trioxane compounds having antimalarial, antiproliferative and antitumor activities” (priority 1997, dated 2000)
Entries after “also recorded” stand apart in the source; their conditions may differ. Where two headings read alike, the source gives them in different places.

Tests used:
[1] = tested on: HOP-62; assay: cells; format: cell-based; conditions: Homo sapiens, read-out: Log10 GI50 (converted)
[2] = tested on: 60 cell line panel; assay: NCI 60 cell line screen, whole panel; format: cell-based
[3] = tested on: PC-3; assay: cells; format: cell-based; conditions: Homo sapiens, PC-3
[4] = tested on: RXF 393; assay: cells; conditions: Homo sapiens, RXF 393, read-out: Log10 GI50 (converted)
[5] = tested on: UO-31; assay: NCI 60 cell line screen (SRB), renal cancer; format: cell-based; conditions: Homo sapiens
[6] = tested on: ACHN; assay: cells; conditions: Homo sapiens
[7] = tested on: M14; assay: NCI 60 cell line screen (SRB), melanoma; conditions: Homo sapiens, M14, read-out: Log10 GI50 (converted)
[8] = tested on: NCI-H460; assay: cells; format: cell-based; conditions: Homo sapiens, NCI-H460
[9] = tested on: A498; assay: cells; format: cell-based; conditions: Homo sapiens, read-out: Log10 GI50 (converted)
[10] = tested on: T-47D; assay: cells; format: cell-based; conditions: Homo sapiens, T47D, T-47D
[11] = tested on: U251; assay: cells; format: cell-based; conditions: Homo sapiens
[12] = tested on: SNB-19; assay: cells; format: cell-based; conditions: Homo sapiens, read-out: Log10 GI50 (converted)
[13] = tested on: HCT-15; assay: cells; format: cell-based; conditions: Homo sapiens, HCT-15
[14] = tested on: SR; assay: cells; format: cell-based; conditions: Homo sapiens
[15] = tested on: KM12; assay: cells; format: cell-based; conditions: Homo sapiens, read-out: Log10 TGI (converted)
[16] = tested on: MCF7; assay: cells; format: cell-based; conditions: Homo sapiens, MCF7; read-out: Log10 GI50 (converted)
[17] = tested on: K-562; assay: cells; format: cell-based; conditions: Homo sapiens, K562, K-562
[18] = tested on: HCT-116; assay: cells; format: cell-based; conditions: Homo sapiens
[19] = tested on: MOLT-4; assay: cells; conditions: Homo sapiens
Procedure: The screening assay is performed on a 96-well microtitre plates.
Dose response curves, shown in the above mentioned Figures, are obtained by exposing various cancer cell lines to compounds having a known concentration ([log10 M]), as discussed in detail above, and then plotting the percentage growth of each cell line for each concentration. […] As discussed previously, the five drug dilutions routinely tested range from 10^-4 to 10^-9 molar.

[20] = tested on: HOP-92; assay: NCI 60 cell line screen (SRB), non-small cell lung cancer; format: cell-based; conditions: Homo sapiens, read-out: Log10 GI50 (converted)
[21] = tested on: SK-MEL-2; assay: cells; format: cell-based; conditions: Homo sapiens
[22] = tested on: IGROVI; assay: cells; conditions: 60 cell
[23] = tested on: SNB-75; assay: cells; format: cell-based; conditions: Homo sapiens, read-out: Log10 GI50 (converted)
[24] = tested on: A549/ATCC; assay: NCI 60 cell line screen (SRB), non-small cell lung cancer; format: cell-based; conditions: Homo sapiens
[25] = tested on: MDA-N; assay: cells; format: cell-based; conditions: Homo sapiens, read-out: Log10 GI50 (converted)
[26] = tested on: NCI-H226; assay: NCI 60 cell line screen (SRB), non-small cell lung cancer; format: cell-based; conditions: Homo sapiens, read-out: Log10 GI50 (converted)
[27] = tested on: SW-620; assay: NCI 60 cell line screen (SRB), colon cancer; format: cell-based; conditions: Homo sapiens
[28] = tested on: NCI-H23; assay: NCI 60 cell line screen (SRB), non-small cell lung cancer; format: cell-based; conditions: Homo sapiens
[29] = tested on: OVCAR-8; assay: NCI 60 cell line screen (SRB), ovarian cancer; format: cell-based; conditions: Homo sapiens
[30] = tested on: TK-10; assay: cells; format: cell-based; conditions: Homo sapiens
[31] = tested on: BT-549; assay: cells; format: cell-based; conditions: Homo sapiens
[32] = tested on: EKVX; assay: NCI 60 cell line screen (SRB), non-small cell lung cancer; format: cell-based; conditions: Homo sapiens
[33] = tested on: HT29; assay: cells; format: cell-based; conditions: Homo sapiens, HT-29, read-out: Log10 GI50 (converted)
[34] = tested on: MDA-MB231/ATCC; assay: cells; format: cell-based; conditions: Homo sapiens, MDA-MB-231, read-out: Log10 TGI (converted)
[35] = read-out: Log10 GI50 (converted)
[36] = read-out: Log10 TGI (converted)
[37] = read-out: Log10 LC50 (converted)

C[C@H]1[C@@H](F)O[C@@H]2O[C@@]3(C)CC[C@H]4[C@H](C)CC[C@@H]1[C@@]24OO3 [Compound VI, 10β-Fluorodeoxoartemisinin]
GI50 [1]: 12.9 µM | IC (TGI) ([2]; 60 cell, mean over panel, read-out: Log10 TGI MG MID (converted)): 41.7 µM | CC50 ([2]; Homo sapiens, 60 cell, mean over panel, read-out: Log10 LC50 MG MID (converted)): 93.3 µM | potency compared with artemisinin ([2]; Tables III, IV and V): more potent than artemisinin | potency compared with paclitaxel ([2]; Tables III, IV and V): in most instances are as potent and in some instances more potent than paclitaxel; also recorded: equivalent to and in many instances higher in potency than paclitaxel | GI50 [3, 35]: 0.251 µM | IC (TGI) [3, 36]: 46.8 µM | GI50 [4]: 14.8 µM | GI50 [5, 35]: 1.1 µM | CC50 [5, 37]: 25.1 µM | IC (TGI) [5, 36]: 5.01 µM | GI50 [6, 35]: 1.02 µM | CC50 [6, 37]: 38.9 µM | IC (TGI) ([6]; read-out: Log10 TGI): 12.6 µM | GI50 [7]: 17.4 µM | GI50 [8, 35]: 0.813 µM | CC50 [8, 37]: 55 µM | IC (TGI) [8, 36]: 19.1 µM | GI50 [9]: 28.2 µM | GI50 [10, 35]: 0.302 µM | IC (TGI) [10, 36]: 47.9 µM | GI50 ([11]; U-251, read-out: Log10 GI50 (converted)): 0.447 µM | CC50 ([11]; U-251, read-out: Log10 LC50 (converted)): 42.7 µM | IC (TGI) ([11]; U-251, read-out: Log10 TGI (converted)): 16.2 µM | GI50 [12]: 871 µM | GI50 [13, 35]: 0.339 µM | IC (TGI) [13, 36]: 51.3 µM | GI50 [14, 35]: 0.427 µM | IC (TGI) [14, 36]: 13.8 µM | IC (TGI) [15]: 26.9 µM | GI50 [16]: 0.525 µM | GI50 [17, 35]: 0.316 µM | IC (TGI) [17, 36]: 12.6 µM | GI50 [18, 35]: 0.195 µM | CC50 [18, 37]: 42.7 µM | GI50 ([19]; MOLT-4, read-out: Log10 GI50 (converted)): 0.427 µM | IC (TGI) ([19]; MOLT-4, read-out: Log10 TGI): 36.3 µM | GI50 ([19]; MOLT-4, read-out: concentration for primary growth inhibition): ~0.1 µM | GI50 [20]: 2.95 µM | GI50 [21, 35]: 7.59 µM | IC (TGI) [21, 36]: 77.6 µM | GI50 [22, 35]: 1.23 µM | IC (TGI) ([22]; read-out: Log10 TGI): 18.2 µM | GI50 [23]: 14.5 µM | GI50 [24, 35]: 6.03 µM | IC (TGI) [24, 36]: 30.9 µM | GI50 [25]: 1.15 µM | GI50 [26]: 5.75 µM | GI50 [27, 35]: 0.398 µM | CC50 [27, 37]: 63.1 µM | IC (TGI) [27, 36]: 15.5 µM | GI50 [28, 35]: 0.631 µM | IC (TGI) [28, 36]: 25.1 µM | GI50 [29, 35]: 2.04 µM | IC (TGI) [29, 36]: 51.3 µM | GI50 [30, 35]: 11 µM | IC (TGI) [30, 36]: 37.2 µM | GI50 [31, 35]: 0.759 µM | IC (TGI) [31, 36]: 30.9 µM | GI50 [32, 35]: 2.95 µM | IC (TGI) [32, 36]: 89.1 µM | GI50 [33]: 0.407 µM | IC (TGI) [34]: 56.2 µM
